According to patent publication US8952054B2, “Small molecule inhibitors of MUC1 and methods of identifying the same” (Dana-Farber Cancer Institute, Inc., priority 2010, dated 2015):

Key:
[1] = tested on: MUC1; assay: MUC1 mRNA (qRT-PCR) and MUC1-C protein (immunoblot) in MCF-7 cells; type: cell-based, human; conditions: for MUC1 mRNA levels: MCF-7, 75 μM, 3 d, qRT-PCR; for MUC1-C protein in the nucleus / MUC1-C protein in whole cell lysates: MCF-7, 3 days
Procedure: FIGS. 14A-E—Apigenin suppresses MUC1 expression in MCF-7 cells. (FIG. 14A) MCF-7 cells were treated with DMSO vehicle, 75 μM apigenin or 75 μM baicalein for 3 d. Total RNA was assayed for MUC1 mRNA levels by qRTPCR. The results (mean+SD of 3 determinations) are expressed as relative MUC1 mRNA levels as compared to that obtained in cells treated with DMSO. (FIGS. 14B-C) MCF-7 cells were treated with the indicated concentrations of apigenin and baicalein for 3 days. Nuclear (FIG. 14B) and whole cell lysates (FIG. 14C) were immunoblotted with the indicated antibodies. D. Lysates from MCF-7 cells were infected to stably express a control lentivirus and one with a MUC1 shRNA were immunoblotted with the indicated antibodies. (FIG. 14E) The indicated MCF-7 cells were treated with […] apigenin for 3 d. Viable cell number was determined by the MTS assay. The results (mean+SD of 3 determinations) are expressed as percentage of control growth in the presence of DMSO.

[2] = target: T1, MUC1-C (Homo sapiens, UniProt P15941); assay: Immunoblot of MUC1-C levels in MCF-10A cells (flavones); type: cell-based; parameters: endogenous in cells; conditions: 50 to 100 μM, 3 d then additional 3 d
T1 sequence (P15941 1098-1255 limits assumed): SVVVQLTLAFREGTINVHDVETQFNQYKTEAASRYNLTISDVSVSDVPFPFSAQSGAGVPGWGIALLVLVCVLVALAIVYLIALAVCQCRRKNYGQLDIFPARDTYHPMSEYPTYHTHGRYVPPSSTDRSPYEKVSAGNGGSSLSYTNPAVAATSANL
Procedure: FIGS. 13A-D—Apigenin downregulates MUC1 and confers death of MCF-10A cells. (FIG. 13A) MCF-10A cells were treated with the indicated concentrations of apigenin and baicalein for 3 d, washed and then treated for an additional 3 d. Lysates were immunoblotted with the indicated antibodies. (FIG. 13B) MCF-10A cells were treated with the indicated concentrations apigenin (circles) and baicalein (squares) for 3 d. Viable cell number was determined by the MTS assay. The results (mean+SD of 3 determinations) are expressed as percentage of control growth in the presence of DMSO. (FIG. 13C) MCF-10A cells were treated with DMSO, 75 μM apigenin or 75 μM baicalein for 3 d. Lysates were subjected to immunoblotting with the indicated antibodies. (FIG. 13D) MCF-10A cells were treated with DMSO, 75 μM apigenin or 75 μM baicalein for 3 d, stained with propidium iodide and analyzed by flow cytometry.

[3] = tested on: ZR-75-1 breast tumor xenografts; assay: ZR-75-1 breast tumor xenografts in nude mice; type: in vivo, Balb-c nu/nu mice
Procedure: FIGS. 5A-C. MUC1/CQC peptide blocks growth of ZR-75-1 breast tumor xenografts. (FIG. 5A) Four to six week-old female Balb-c nu/nu mice were implanted with 17-β-estradiol plugs. After 24 h, ZR-75-1 breast cancer cells (imbedded in matrigel) were injected subcutaneously in the flank. When tumors were ˜150 mm3, the mice were paired matched into groups and injected intraperitoneally with PBS (vehicle control; closed squares), 50 mg/kg MUC1/AQA peptide (control peptide; open squares) or 10 mg/kg MUC1/CQC peptide (closed triangles) daily for 21 d. Another group was treated with 50 mg/kg MUC1/CQC peptide daily for 6 d (open triangles). Mice were weighed twice weekly and tumor measurements were performed every 4 d. (FIGS. 5B and 5C). On day 24 (asterisk), tumors harvested from the control group and the group treated with 50 mg/kg/d×6 d were stained with H&E (FIG. 5B) and with an antibody against MUC1 (FIG. 5C).
To determine if administration of the MUC1/CQC peptide is associated with effects on body weight, five female nude (nu/nu) mice were injected intraperitoneally (IP) once each day at a dose of 50 mg/kg. […] To assess anti-tumor activity, ZR-75-1 cells (1×10^7) were implanted subcutaneously into the flanks of nude mice. After 12 d, mice bearing tumors of approximately 150 mm^3 were treated with the MUC1/CQC peptide at doses of 10 and 50 mg/kg/d. As controls, mice were treated with vehicle alone or with the MUC1/AQA peptide. Administration of the MUC1/CQC peptide at 10 mg/kg/d×21 d slowed growth as compared to that obtained with the MUC1/AQA peptide given at 50 mg/kg/d (FIG. 5A). […] Consequently, treatment was stopped and the mice were monitored for regrowth. […] To assess in part the basis for the activity, tumors harvested from control and treated mice were examined by histopathology. […] Sections of the tumors were also stained with an antibody against MUC1.

Row | Molecule | MUC1 mRNA levels [1] | MUC1-C protein in the nucleus [1] | MUC1-C protein in whole cell lysates [1] | MUC1-C levels [2] | tumor growth ([3]; 10 mg/kg/d × 21 d IP, versus MUC1/AQA 50 mg/kg/d) | tumor growth ([3]; 50 mg/kg/d IP, initial 7 d of treatment) | tumor regrowth after treatment stopped ([3]; 50 mg/kg/d group, next 17 d) | tumor histopathology (H&E) ([3]; 10 and 50 mg/kg, versus vehicle or MUC1/AQA) | MUC1 expression in tumor sections (antibody staining) ([3]; versus control tumors)
1 | O=c1cc(-c2ccc(O)cc2)oc2cc(O)cc(O)c12 [Apigenin, 4′,5,7-trihydroxyflavone] | downregulation of MUC1 mRNA levels | decreased expression of the MUC1-C protein | decreased expression of the MUC1-C protein | downregulation of MUC1-C levels | – | – | – | – | –
2 | O=c1cc(-c2ccccc2)oc2cc(O)c(O)c(O)c12 [Baicalein, 5,6,7-trihydroxyflavone, reference compound] | no apparent effect | not | not | no apparent effect | – | – | – | – | –
3 | CC[C@H](C)[C@H](NC(=O)[C@H](CC(=O)O)NC(=O)[C@H](CC(C)C)NC(=O)[C@H](CCC(N)=O)NC(=O)CNC(=O)[C@H](Cc1ccc(O)cc1)NC(=O)[C@H](CC(N)=O)NC(=O)[C@H](CCCCN)NC(=O)[C@H](CCCNC(=N)N)NC(=O)[C@H](CCCNC(=N)N)NC(=O)[C@H](CS)NC(=O)[C@H](CCC(N)=O)NC(=O)[C@H](CS)NC(=O)[C@@H](CCCNC(=N)N)NC(=O)[C@@H](CCCNC(=N)N)NC(=O)[C@@H](CCCNC(=N)N)NC(=O)[C@@H](CCCNC(=N)N)NC(=O)[C@@H](CCCNC(=N)N)NC(=O)[C@@H](CCCNC(=N)N)NC(=O)[C@@H](CCCNC(=N)N)NC(=O)[C@@H](CCCNC(=N)N)NC(=O)[C@H](N)CCCNC(=N)N)C(=O)N[C@@H](Cc1ccccc1)C(=O)N1CCC[C@H]1C(=O)O [MUC1/CQC] | – | – | – | – | slowed growth | blocked growth | no detectable growth | markedly necrotic | –
4 | MUC1/AQA: control peptide in which the CQC motif was altered to AQA (SEQ ID NO: 11) (AQARRKNYGQLDIFP) [reference compound] | – | – | – | – | – | – | – | – | marked down-regulation of MUC1 expression
